Experimental data: US20050276857A1, “Hydrogels formed by non-covalent linkages” (University of Washington, priority 2002, published 2005)
Where two headings read alike, the source gives them in different places.

How the values were obtained:
[1] = Comparison of D- and L-amino acids for forming hydrogels with PVA; type: physicochemical; design: key: {square root} = Gel formation when amino acid was dissolved in water; + = Gel formation when amino acid was dissolved in 1 M NaHCO3; − = No gel formation regardless of solvent for amino acid; *= HCl derivative of amino acid; settings: 1 ml of 8% PVA; for Gel formation, D: D-amino acid; for Gel formation, L: L-amino acid
Procedure: In these experiments, the ability of D-amino acids to gel PVA was compared directly to the gelling observed using L-amino acids. The concentrations of amino acids used were the same for both the L- and D-forms. All D- and L-amino acids were obtained from Aldrich. Typically, 100 mg of amino acid was dissolved in the minimum amount of water or 1M NaHCO3 (200-600 microliter) necessary to dissolve it. […] For each amino acid/PVA combination, 1 ml of 8% PVA was used (80 mg PVA) and the amount of amino acid was varied. 100 mg of each of amino acids was added unless listed below, with the following exceptions: L-Gln 20 mg; D-Ile 50 mg; L-Phe 20 mg and 40 mg; L-Pro 50 mg and 100 mg; L-Ser 30 mg and 100 mg; L-Thr 30 mg; D-Trp 10 mg and 30 mg; L-Trp 8 mg; L-Tyr 10 mg; D-Tyr 10 mg; L-Val 30 mg.

[2] = for amount necessary to cause precipitation of 1 ml 8% PVA: 1.8 mmol of available OH groups
Procedure: Succinic acid, ethylene diamine, and glycine were each dissolved in water at a typical ratio of 100 mg in 1 ml water.
Aliquots of 100 microliter of each solution were added to PVA to reach final concentrations of either ˜0.5 mmol (low concentration) or ˜1 mmol (high concentration) per 1 ml 8% PVA solution (1.8 mmol of available OH groups in PVA).

Structure (SMILES)	Gel formation, D [1]	Gel formation, L [1]	also measured
C[C@@H](N)C(=O)O [D-Ala]	−		
Cl.NC(N)=NCCC[C@@H](N)C(=O)O [D-Arg]	−*		
NC(=O)C[C@@H](N)C(=O)O [D-Asn]	−		
N[C@H](CC(=O)O)C(=O)O [D-Asp]	−		
NC(=O)CC[C@@H](N)C(=O)O [D-Gln]	−		
N[C@H](CCC(=O)O)C(=O)O [D-Glu]	−		
N[C@H](Cc1c[nH]cn1)C(=O)O [D-His]	−		
CC[C@@H](C)[C@@H](N)C(=O)O [D-Ile]	+		
CC(C)C[C@@H](N)C(=O)O [D-Leu]	+		
NCCCC[C@@H](N)C(=O)O [D-Lys]	{square root}		
CSCC[C@@H](N)C(=O)O [D-Met]	+		
CCCC[C@@H](N)C(=O)O [D-Nle]	+		
N[C@H](Cc1ccccc1)C(=O)O [D-Phe]	+		
O=C(O)[C@H]1CCCN1 [D-Pro]	{square root}		
N[C@H](CO)C(=O)O [D-Ser]	{square root}		
C[C@H](O)[C@@H](N)C(=O)O [D-Thr]	+		
N[C@H](Cc1c[nH]c2ccccc12)C(=O)O [D-Trp]	+		
N[C@H](Cc1ccc(O)cc1)C(=O)O [D-Tyr]	+		
CC(C)[C@@H](N)C(=O)O [D-Val]	+		
NCCN [Ethylene Diamine, ethylene diamine]			Gel formation ([2]; pH 4): −; gelling over time ([2]; pH 4.4): no gelling over time; initial gelling ([2]; pH 4.4): no immediate gelling; Gel formation ([2]; pH 7): −; gelling over time ([2]; pH 7.2): no additional gelling; initial gelling ([2]; pH 7.2): little immediate gelling; Gel formation ([2]; pH 10): ++; initial gelling ([2]; pH 10.0): immediate gelling; gelling over time ([2]; pH 10.0, first 24 hours): additional gelling; initial gelling ([2]; pH 12.7): immediate gelling; gelling over time ([2]; pH 12.7, first 24 hours): additional gelling; Gel formation ([2]; pH 13.1): +++
NCC(=O)O [Glycine, glycine]		{square root}	dissolution of gel in water ([2]; gel formed at pH 7, cured for 1 hour in its solution before placing in water): did not dissolve; Gel formation ([2]; pH 4): −; initial gelling ([2]; pH 4): little gel formation; gelling over time ([2]; pH 4, within the first 24 hours): additional gel formation; Gel formation ([2]; pH 7): +++; gelling at higher concentration ([2]; pH 7): immediate gel formation; gelling over time ([2]; pH 7): More gelling; initial gelling ([2]; pH 7): substantial gelling; amount necessary to cause precipitation of 1 ml 8% PVA ([2]; pH 7): 2.6 mmol; initial gelling ([2]; pH 9.9): much gelling; gelling over time ([2]; pH 9.9, within 24 hours): Considerable additional gelling; Gel formation ([2]; pH 10): ++

Structure (SMILES)	Gel formation, D [1]	Gel formation, L [1]	also measured
C[C@H](N)C(=O)O [L-Ala]		+	
N=C(N)NCCC[C@H](N)C(=O)O [L-Arg]		{square root}	
NC(=O)C[C@H](N)C(=O)O [L-Asn]		+	
N[C@@H](CC(=O)O)C(=O)O [L-Asp]		−	
N[C@@H](CS)C(=O)O [L-Cys]		+	
NC(=O)CC[C@H](N)C(=O)O [L-Gln]		+	
N[C@@H](CCC(=O)O)C(=O)O [L-Glu]		−	
N[C@@H](Cc1c[nH]cn1)C(=O)O [L-His]		{square root}	
O=C(O)[C@@H]1C[C@@H](O)CN1 [L-Hyp]		−	
CC[C@H](C)[C@H](N)C(=O)O [L-Ile]		−	
CC(C)C[C@H](N)C(=O)O [L-Leu]		−	
NCCCC[C@H](N)C(=O)O [L-Lys]		{square root}	
CSCC[C@H](N)C(=O)O [L-Met]		−	
N[C@@H](Cc1ccccc1)C(=O)O [L-Phe]		+	
O=C(O)[C@@H]1CCCN1 [L-Pro]		{square root}	
N[C@@H](CO)C(=O)O [L-Ser]		+	
C[C@@H](O)[C@H](N)C(=O)O [L-Thr]		+	
N[C@@H](Cc1c[nH]c2ccccc12)C(=O)O [L-Trp]		{square root}	
N[C@@H](Cc1ccc(O)cc1)C(=O)O [L-Tyr]		+	
CC(C)[C@H](N)C(=O)O [L-Val]		+	
O=C(O)CCC(=O)O [Succinic Acid, succinic acid]			dissolution of gel in water or in 1M HCl ([2]; gel formed at pH 7.0, higher concentration): did not dissolve; dissolution of gel in water or in 1M HCl ([2]; gel formed at pH 9.7, higher concentration): did not dissolve; Gel formation ([2]; pH 2.1): −; gelling over time ([2]; pH 2.1): No additional gelling; initial gelling ([2]; pH 2.1): very slight gelling; Gel formation ([2]; pH 4): −; Gel formation ([2]; pH 7): +++; gelling at higher concentration ([2]; pH 7.0): PVA precipitates out immediately; gelling over time ([2]; pH 7.0): A little more gelling; initial gelling ([2]; pH 7.0, small amounts added): some initial gelling; amount necessary to cause precipitation of 1 ml 8% PVA ([2]; pH 7): 0.85 mmol; gelling at higher concentration ([2]; pH 9.7): PVA precipitates out immediately; gelling over time ([2]; pH 9.7): Additional gelling; initial gelling ([2]; pH 9.7, small amounts added): some initial gelling; Gel formation ([2]; pH 10): +++; amount necessary to cause precipitation of 1 ml 8% PVA ([2]; pH 10): 0.73 mmol
